Laboratory results taken from PubChem BioAssay AID330 (DTP/NCI, 2004).
Values joined by “and” are separate entries in the source; they are usually repeats but may differ in a detail not shown here. Equal values may be shown once. Inconclusive results and toxic doses are left out. How the source made its calls: active means survival T/C of 150% or more; inactive means T/C below 125% in these data.

System: P388 leukemia ip, CD2F1 mice, survival T/C
Test: NCI In Vivo Anticancer Drug Screen. Data for tumor model P388 Leukemia (intraperitoneal) in CD2F1 (CDF1) mice
Settings: endpoint: median survival time, higher = longer survival
How it was run: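 Mice carrying the transplanted tumor received test compound or vehicle. Survival was recorded in each group, and the value is the treated-group measurement divided by that of the vehicle-treated control group.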

[1] = dose: 6.25 mg/kg/injection, schedule: Q01DX009 (ip), vehicle: saline with Tween-80
[2] = dose: 50.0 mg/kg/injection, schedule: Q01DX005 (ip), vehicle: saline with Tween-80
[3] = dose: 100.0 mg/kg/injection, schedule: Q01DX005 (ip), vehicle: saline with Tween-80
[4] = dose: 200.0 mg/kg/injection, schedule: Q01DX005 (ip), vehicle: saline with Tween-80
[5] = dose: 60.0 mg/kg/injection, schedule: Q01DX005 (ip), vehicle: saline with Tween-80
[6] = dose: 120.0 mg/kg/injection, schedule: Q01DX005 (ip), vehicle: saline with Tween-80
[7] = dose: 240.0 mg/kg/injection, schedule: Q01DX005 (ip), vehicle: saline with Tween-80
[8] = dose: 100.0 mg/kg/injection, schedule: Q04DX003 (ip), vehicle: Klucel (hydroxypropylcellulose) (HPC)
[9] = dose: 200.0 mg/kg/injection, schedule: Q04DX003 (ip), vehicle: Klucel (hydroxypropylcellulose) (HPC)
[10] = dose: 50.0 mg/kg/injection, schedule: Q01DX005 (ip), vehicle: Klucel (hydroxypropylcellulose) (HPC)
[11] = dose: 100.0 mg/kg/injection, schedule: Q01DX005 (ip), vehicle: Klucel (hydroxypropylcellulose) (HPC)
[12] = dose: 200.0 mg/kg/injection, schedule: Q01DX005 (ip), vehicle: Klucel (hydroxypropylcellulose) (HPC)
[13] = dose: 25.0 mg/kg/injection, schedule: Q01DX009 (ip), vehicle: Klucel (hydroxypropylcellulose) (HPC)
[14] = dose: 50.0 mg/kg/injection, schedule: Q01DX009 (ip), vehicle: Klucel (hydroxypropylcellulose) (HPC)
[15] = dose: 50.0 mg/kg/injection, schedule: Q01DX009 (ip), vehicle: saline
[16] = dose: 100.0 mg/kg/injection, schedule: Q01DX009 (ip), vehicle: Klucel (hydroxypropylcellulose) (HPC)
[17] = dose: 200.0 mg/kg/injection, schedule: Q01DX009 (ip), vehicle: Klucel (hydroxypropylcellulose) (HPC)
[18] = dose: 200.0 mg/kg/injection, schedule: Q01DX009 (ip), vehicle: saline

Measured: T/C

CCC[CH2][Sn]([CH2]CCC)[O][Sn]([Cl])([CH2]CCC)[CH2]CCC
inactive: dose: 0.79 mg/kg/injection, schedule: Q01DX009 (ip), vehicle: saline 100 % of control | dose: 1.56 mg/kg/injection, schedule: Q01DX009 (ip), vehicle: saline with Tween-80 100 % of control | dose: 1.56 mg/kg/injection, schedule: Q01DX009 (ip), vehicle: saline 100 % of control | dose: 3.12 mg/kg/injection, schedule: Q01DX009 (ip), vehicle: saline with Tween-80 101 % of control and 113 % of control | dose: 3.12 mg/kg/injection, schedule: Q01DX009 (ip), vehicle: saline 97 % of control | [1] 100 % of control | dose: 6.25 mg/kg/injection, schedule: Q01DX009 (ip), vehicle: saline 88 % of control

CC(=O)C(C(=O)Nc1cccc2ccccc12)C(C)=NCCN=C(C)C(C(C)=O)C(=O)Nc1cccc2ccccc12.[Cu] (centres undefined)
inactive: [2] 94 % of control | [3] 96 % of control | [4] 96 % of control

CC(C)(C)N1CS[C@@H]2CCCC[C@H]21
inactive: dose: 25.0 mg/kg/injection, schedule: Q01DX005 (ip), vehicle: saline 104 % of control | dose: 50.0 mg/kg/injection, schedule: Q01DX005 (ip), vehicle: saline 92 % of control | dose: 100.0 mg/kg/injection, schedule: Q01DX005 (ip), vehicle: saline 111 % of control

Cc1ccc(S(=O)(=O)N=S(=O)(CCCl)CCCl)cc1
inactive: dose: 12.5 mg/kg/injection, schedule: Q04DX003 (ip), vehicle: saline 98 % of control | dose: 25.0 mg/kg/injection, schedule: Q04DX003 (ip), vehicle: saline 98 % of control | dose: 50.0 mg/kg/injection, schedule: Q04DX003 (ip), vehicle: saline 96 % of control

COc1ccc(C2CC(=O)N(CN3CCN(c4ccc(Cl)cc4)CC3)C(=O)C2)cc1
inactive: [1] 94 % of control | dose: 12.5 mg/kg/injection, schedule: Q01DX009 (ip), vehicle: saline with Tween-80 94 % of control | dose: 25.0 mg/kg/injection, schedule: Q01DX009 (ip), vehicle: saline with Tween-80 91 % of control | dose: 200.0 mg/kg/injection, schedule: Q01DX009 (ip), vehicle: saline with Tween-80 92 % of control

O=c1[nH]nc(NC2Nc3ccccc3N2)c2ccccc12
inactive: [5] 97 % of control | [6] 96 % of control | [7] 96 % of control

CSc1nc(N)c(N=O)c(N)n1
inactive: dose: 50.0 mg/kg/injection, schedule: Q04DX002 (ip), vehicle: suspension in saline 100 % of control | dose: 100.0 mg/kg/injection, schedule: Q04DX002 (ip), vehicle: suspension in saline 101 % of control | dose: 200.0 mg/kg/injection, schedule: Q04DX002 (ip), vehicle: suspension in saline 104 % of control

O=C(O)c1ccc(N2C(=O)CC3(CCCCC3)C2=O)cc1O
inactive: [8] 101 % of control | [9] 102 % of control | dose: 400.0 mg/kg/injection, schedule: Q04DX003 (ip), vehicle: Klucel (hydroxypropylcellulose) (HPC) 88 % of control

CCCCNC(=O)OCC1=C(COC(=O)NCCCC)C2OC1C(C(=O)OC)=C2C(=O)OC
inactive: dose: 3.13 mg/kg/injection, schedule: Q01DX009 (ip), vehicle: distilled water + Tween-80 109 % of control | dose: 6.25 mg/kg/injection, schedule: Q01DX009 (ip), vehicle: distilled water + Tween-80 101 % of control and 108 % of control and 113 % of control | dose: 50.0 mg/kg/injection, schedule: Q01DX009 (ip), vehicle: distilled water + Tween-80 104 % of control and 108 % of control | dose: 100.0 mg/kg/injection, schedule: Q01DX009 (ip), vehicle: distilled water + Tween-80 95 % of control

COc1ccc(C(CCOS(=O)(=O)c2ccc(Br)cc2)(c2ccc(OC)cc2)c2ccc(OC)cc2)cc1
inactive: [5] 93 % of control | [6] 93 % of control | [7] 87 % of control

Cc1ccc(S(=O)(=O)N=C(N(C)C)N(C)C)cc1
inactive: dose: 100.0 mg/kg/injection, schedule: Q04DX002 (ip), vehicle: saline with Tween-80 99 % of control | dose: 200.0 mg/kg/injection, schedule: Q04DX002 (ip), vehicle: saline with Tween-80 100 % of control | dose: 400.0 mg/kg/injection, schedule: Q04DX002 (ip), vehicle: saline with Tween-80 104 % of control

CS(=O)(=O)C(=Cc1ccccc1Cl)S(C)(=O)=O
inactive: dose: 50.0 mg/kg/injection, schedule: Q04DX003 (ip), vehicle: Klucel (hydroxypropylcellulose) (HPC) 102 % of control | [8] 107 % of control | [9] 108 % of control

Clc1ccc2nc3c(c(N4CCCCC4)c2c1)CCCC3
inactive: [2] 105 % of control | [3] 105 % of control | [4] 100 % of control

COC(=O)c1cc(=O)nc(N/N=C/c2cc(OC)ccc2OC)s1
inactive: [2] 95 % of control | [3] 94 % of control | [4] 95 % of control

CCOC(=O)c1cnc(=O)[nH]c1C(=O)OCC
inactive: [10] 91 % of control | [11] 100 % of control | [12] 99 % of control

CC(=O)NC(Cc1cc(I)c(O)c(I)c1)C(=O)O (centres undefined)
inactive: [13] 94 % of control | [14] 88 % of control | [15] 100 % of control | [16] 94 % of control | dose: 100.0 mg/kg/injection, schedule: Q01DX009 (ip), vehicle: saline 107 % of control | [17] 94 % of control | [18] 105 % of control

O=c1[nH][nH]c(O)c1-c1ccc(-c2c(O)[nH][nH]c2=O)cc1
inactive: [10] 105 % of control | [11] 105 % of control | [12] 101 % of control

O=C(O)c1ccc(OCCOc2ccccc2)c(Cl)c1
inactive: [5] 98 % of control | [6] 95 % of control | [7] 93 % of control

CCOC(CNC(C)c1ccc2cc(OC)c(OC)cc2c1)OCC (centres undefined)
inactive: [13] 100 % of control | [14] 114 % of control | [16] 116 % of control | [17] 121 % of control

CC(=O)NC1=NN(C(C)=O)C(c2ccccc2)S1=O (centres undefined)
inactive: [2] 108 % of control | [3] 107 % of control

BrC1C(c2ccccc2)=NOC12CN=C(c1ccccc1)O2 (centres undefined)
inactive: dose: 100.0 mg/kg/injection, schedule: Q01DX001 (ip), vehicle: Klucel (hydroxypropylcellulose) (HPC) 101 % of control | dose: 200.0 mg/kg/injection, schedule: Q01DX001 (ip), vehicle: Klucel (hydroxypropylcellulose) (HPC) 99 % of control | dose: 400.0 mg/kg/injection, schedule: Q01DX001 (ip), vehicle: Klucel (hydroxypropylcellulose) (HPC) 96 % of control

COc1ccc(-c2cc(-c3ccccc3)[nH]c(=O)c2N(C)C)cc1
inactive: [13] 90 % of control | [14] 89 % of control | [16] 89 % of control | [17] 86 % of control

CC(=C/c1cc(C)cc(=O)o1)/C=C/c1ccc(C)c(C)c1C
inactive: dose: 12.5 mg/kg/injection, schedule: Q01DX005 (ip), vehicle: Klucel (hydroxypropylcellulose) (HPC) 97 % of control | dose: 25.0 mg/kg/injection, schedule: Q01DX005 (ip), vehicle: Klucel (hydroxypropylcellulose) (HPC) 97 % of control | [10] 99 % of control and 88 % of control and 90 % of control | [12] 86 % of control and 88 % of control

CC(=O)Oc1ccc2ccc(=O)oc2c1OC(C)=O
inactive: [13] 102 % of control | [14] 101 % of control | [16] 109 % of control | [17] 118 % of control

O=C(O)c1cc2ccc(Cl)cc2[se]1
inactive: dose: 12.5 mg/kg/injection, schedule: Q01DX009 (ip), vehicle: saline 89 % of control | dose: 25.0 mg/kg/injection, schedule: Q01DX009 (ip), vehicle: saline 105 % of control | [15] 106 % of control and 88 % of control | [18] 91 % of control

O=C(NC1(C(=O)O)CC1c1ccccc1)c1ccccc1 (centres undefined)
inactive: dose: 60.0 mg/kg/injection, schedule: Q01DX005 (ip), vehicle: Klucel (hydroxypropylcellulose) (HPC) 100 % of control | dose: 120.0 mg/kg/injection, schedule: Q01DX005 (ip), vehicle: Klucel (hydroxypropylcellulose) (HPC) 94 % of control | dose: 240.0 mg/kg/injection, schedule: Q01DX005 (ip), vehicle: Klucel (hydroxypropylcellulose) (HPC) 100 % of control

CCC(=O)NCC(CN(C)C)(c1ccccc1)c1ccccc1
inactive: dose: 100.0 mg/kg/injection, schedule: Q01DX001 (ip), vehicle: saline with Tween-80 112 % of control | dose: 200.0 mg/kg/injection, schedule: Q01DX001 (ip), vehicle: saline with Tween-80 100 % of control
